Experimental data: patent US20050043534A1, “Modulators of ceramidase and methods of used based thereon” (priority 2001, published 2005)

Molecular target: mitochondrial ceramidase (Rattus norvegicus, UniProt Q91XT9)
Experiment: mitochondrial ceramidase (mt-CDase) activity, radioactive assay or HPLC assay
Format: biochemical
Conditions: not given
Method: The enzymatic activity of mitochondrial ceramidase was determined by either one of the two following methods:
a. Radioactive assay: The mt-CDase activity was determined by measuring the release of radioactive fatty acid from tritiated ceramide ([^3H]-C16-Cer), labeled in the acyl chain. Briefly, organic solutions of ceramide and its analogues were initially mixed together, solvents were completely evaporated under nitrogen, then the dried lipids were dispersed in Triton-X 100 by sonication and vigorous vortexing. The reaction assay contained (in a final volume of 200 μl): enzyme (5-10 ng) and 10 nmoles of tritiated C16-ceramide (1×10^5 dpm) delivered in 100 μl of 1% Triton X-100 micelles in a glycine buffer pH 9.5 (200 mM).
b. HPLC-assay: The Mt-CDase activity was also determined by measuring the amount of sphingosine released. Basically the assay was initially the same as described above but using non-radioactive ceramide. The reaction was stopped with 800 μl of chloroform: methanol (2:1 v/v) mixture followed by the addition of phyto-sphingosine (0.5 nmoles) and dihydro-sphingosine (1 nmole) as internal standard and carrier, respectively. The reaction mix was then extracted with NaOH (50 μl, 1N), and the lower chloroform layer containing the sphingosine was further washed with water (100 μl) and dried. The released sphingosine was quantified as the ortho-phthaldehyde (OPA) derivatives as described (30). […] The solvent system was methyl alcohol: potassium phosphate buffer (5 mM), pH 7.0 (90:10 v/v) at a flow rate of 1 ml/min. […] Activity was determined relative to the phytosphingosine OPA peak.
The effects of various compounds of the invention which are stereochemical and structural analogues of ceramide and sphingosine on mt-CDase were investigated. […] Results were expressed as percent of the control ceramidase activity.

mitochondrial ceramidase, sequence (Q91XT9 whole entry): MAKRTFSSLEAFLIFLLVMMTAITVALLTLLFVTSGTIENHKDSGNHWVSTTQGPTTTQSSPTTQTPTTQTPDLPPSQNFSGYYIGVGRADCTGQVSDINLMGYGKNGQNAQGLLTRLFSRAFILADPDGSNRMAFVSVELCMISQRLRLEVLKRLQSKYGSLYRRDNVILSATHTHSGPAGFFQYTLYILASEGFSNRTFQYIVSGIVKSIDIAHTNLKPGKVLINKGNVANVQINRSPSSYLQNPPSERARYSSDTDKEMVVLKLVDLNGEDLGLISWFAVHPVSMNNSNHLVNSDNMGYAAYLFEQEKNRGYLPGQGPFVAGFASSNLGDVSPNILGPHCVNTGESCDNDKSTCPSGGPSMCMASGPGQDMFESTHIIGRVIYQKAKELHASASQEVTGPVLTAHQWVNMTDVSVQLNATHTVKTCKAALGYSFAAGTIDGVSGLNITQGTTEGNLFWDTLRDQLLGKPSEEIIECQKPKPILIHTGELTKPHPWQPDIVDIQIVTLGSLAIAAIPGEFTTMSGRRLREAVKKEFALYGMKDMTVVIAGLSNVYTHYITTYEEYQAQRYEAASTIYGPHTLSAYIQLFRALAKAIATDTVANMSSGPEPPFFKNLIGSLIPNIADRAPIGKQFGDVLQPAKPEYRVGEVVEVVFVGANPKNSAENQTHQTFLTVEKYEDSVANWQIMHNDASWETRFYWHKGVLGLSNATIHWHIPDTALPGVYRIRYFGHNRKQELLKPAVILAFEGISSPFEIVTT

Row | Compound | hydrolysis by mt-CDase (substrate or not, in words)
1 | CCCCCCCCCCCCC/C=C/C(=O)[C@H](CO)NC(=O)CCCCCCCCCCCCCCC [3-keto-C16-Cer, 3-keto-C16-ceramide] | served as a substrate

Same assay, conditions: FIG. 6a; concentration not stated directly

Row | Compound | inhibitory effect on mt-CDase
2 | CCCCCCCCCCCCC/C=C/[C@@H](O)[C@H](CO)NC [N-Me-Sph, N-methyl-D-erythro-sphingosine] | 75%

Same assay, conditions: Table 1, ceramide analogues; hydrolysis of D-erythro-C16 or C18-ceramide at 0.625 mole % (50 μM)

Row | Compound | Estimated IC50 (mole %)
3 | CCCCCCCCCCCCC/C=C/[C@@H](O)[C@H](COC)NC(=O)CCCCCCCCCCCCCCC [1-O-Me-C16-Cer, 1-O-methyl-D-erythro-C16-ceramide] | no effect
4 | CCCCCCCCCCCCC/C=C/[C@@H](OC)[C@H](CO)NC(=O)CCCCCCCCCCCCCCC [3-O-Me-C16-Cer, 3-O-methyl-D-erythro-C16-ceramide] | no effect
5 | CCCCCCCCCCCCC/C=C/C(=O)[C@H](CO)NC(=O)CCCCCCCCCCCCCCC [3-keto-C16-Cer, 3-keto-C16-ceramide] | 0.6 mole %
6 | CCCCCCCCCCCCC/C=C/[C@@H](O)[C@H](COP(=O)(O)O)NC(=O)CCCCCCCCCCCCCCC [Cer-1-P, D-erythro-C16-ceramide-1-phosphate] | activator
7 | CCCCCCCCCCCCC/C=C/[C@@H](O)[C@H](CO)NC(=O)CCCCCCCCCCCCCCCCC [D-e-C18-Cer, D-erythro-C18-ceramide, reference compound] | substrate
8 | CCCCCCCCCCCCC/C=C/[C@@H](O)[C@@H](CO)NC(=O)CCCCCCCCCCCCCCCCC [D-t-C18-Cer, D-threo-C18-ceramide] | 0.21 mole %
9 | CCCCCCCCCCCCC/C=C/[C@H](O)[C@@H](CO)NC(=O)CCCCCCCCCCCCCCCCC [L-e-C18-Cer, L-erythro-C18-ceramide] | 0.26 mole %
10 | CCCCCCCCCCCCC/C=C/[C@H](O)[C@H](CO)NC(=O)CCCCCCCCCCCCCCCCC [L-t-C18-Cer, L-threo-C18-ceramide] | 0.11 mole %
11 | CCCCCCCCCCCCC/C=C/[C@@H](O)[C@H](CO)N(C)C(=O)CCCCCCCCCCCCCCC [N-Me-C16-Cer, N-methyl-D-erythro-C16-ceramide] | no effect
12 | CCCCCCCCCCCCC/C=C\[C@@H](O)[C@H](CO)NC(=O)CCCCCCCCCCCCCCC [cis-D-e-C16-Cer, cis-D-erythro-C16-ceramide] | no effect

Same assay, conditions: Table 2, sphingosine analogues; hydrolysis of D-erythro-ceramide at 0.625 mole % (50 μM)

Row | Compound | Estimated IC50 (mole %)
13 | CCCCCCCCCCCCCC#CC(=O)[C@@H](N)CO [3-keto-deh-Sph, 3-keto-dehydrosphingosine] | weak
14 | CCCCCCCCCCCCCCCC(=O)C(N)CO (stereo not shown) [3-keto-dh-Sph, 3-keto-dihydrosphingosine] | 0.2 mole %
15 | CCCCCCCCCCCCC/C=C/[C@@H](O)[C@H](CO)NC [N-Me-Sph, N-methyl-D-erythro-sphingosine] | 0.13 mole %

Same assay, conditions: concentrations as stated at the place

Row | Compound | effect on mt-CDase activity (in words)
16 | CCCCCCCCCCCCCC#CC(=O)[C@@H](N)CO [3-keto-deh-Sph, 3-keto-dehydrosphingosine] | weaker
17 | CCCCCCCCCCCCCCCC(=O)C(N)CO (stereo not shown) [3-keto-dh-Sph, 3-keto-dihydrosphingosine] | potent inhibitor
18 | CCCCCCCCCCCCC/C=C/[C@@H](O)[C@H](COP(=O)(O)O)NC(=O)CCCCCCCCCCCCCCC [Cer-1-P, D-erythro-C16-ceramide-1-phosphate] | do not interact with the enzyme
19 | CCCCCCCCCCCCC/C=C\[C@@H](O)[C@H](CO)NC(=O)CCCCCCCCCCCCCCC [cis-D-e-C16-Cer, cis-D-erythro-C16-ceramide] | no significant effect

Same assay, conditions: concentrations as stated at the place; listed as 1-O-Me-ceramide

Row | Compound | effect on mt-CDase activity (in words)
20 | CCCCCCCCCCCCC/C=C/[C@@H](O)[C@H](COC)NC(=O)CCCCCCCCCCCCCCC [1-O-Me-C16-Cer, 1-O-methyl-D-erythro-C16-ceramide] | do not interact with the enzyme

Same assay, conditions: concentrations as stated at the place; listed as 1-O-methyl ceramide

Row | Compound | effect on mt-CDase activity (in words)
21 | CCCCCCCCCCCCC/C=C/[C@@H](O)[C@H](COC)NC(=O)CCCCCCCCCCCCCCC [1-O-Me-C16-Cer, 1-O-methyl-D-erythro-C16-ceramide] | no effect

Same assay, conditions: concentrations as stated at the place; listed as 3-O-Me-ceramide

Row | Compound | effect on mt-CDase activity (in words)
22 | CCCCCCCCCCCCC/C=C/[C@@H](OC)[C@H](CO)NC(=O)CCCCCCCCCCCCCCC [3-O-Me-C16-Cer, 3-O-methyl-D-erythro-C16-ceramide] | do not interact with the enzyme

Same assay, conditions: concentrations as stated at the place; listed as 3-O-methyl ceramide

Row | Compound | effect on mt-CDase activity (in words)
23 | CCCCCCCCCCCCC/C=C/[C@@H](OC)[C@H](CO)NC(=O)CCCCCCCCCCCCCCC [3-O-Me-C16-Cer, 3-O-methyl-D-erythro-C16-ceramide] | no effect

Same assay, conditions: concentrations as stated at the place; listed as N-Me-Cer

Row | Compound | effect on mt-CDase activity (in words)
24 | CCCCCCCCCCCCC/C=C/[C@@H](O)[C@H](CO)N(C)C(=O)CCCCCCCCCCCCCCC [N-Me-C16-Cer, N-methyl-D-erythro-C16-ceramide] | loss of the interaction

Same assay, conditions: concentrations as stated at the place; listed as N-Me-ceramide

Row | Compound | effect on mt-CDase activity (in words)
25 | CCCCCCCCCCCCC/C=C/[C@@H](O)[C@H](CO)N(C)C(=O)CCCCCCCCCCCCCCC [N-Me-C16-Cer, N-methyl-D-erythro-C16-ceramide] | do not interact with the enzyme

Same assay, conditions: concentrations as stated at the place; listed as N-methyl-ceramide

Row | Compound | effect on mt-CDase activity (in words)
26 | CCCCCCCCCCCCC/C=C/[C@@H](O)[C@H](CO)N(C)C(=O)CCCCCCCCCCCCCCC [N-Me-C16-Cer, N-methyl-D-erythro-C16-ceramide] | did not affect ceramidase activity

Same assay, conditions: concentrations as stated at the place; listed as cis D-erythro-ceramide

Row | Compound | effect on mt-CDase activity (in words)
27 | CCCCCCCCCCCCC/C=C\[C@@H](O)[C@H](CO)NC(=O)CCCCCCCCCCCCCCC [cis-D-e-C16-Cer, cis-D-erythro-C16-ceramide] | did not inhibit the enzyme

Same assay, conditions: concentrations as stated at the place; listed as cis-D-e-ceramide

Row | Compound | effect on mt-CDase activity (in words)
28 | CCCCCCCCCCCCC/C=C\[C@@H](O)[C@H](CO)NC(=O)CCCCCCCCCCCCCCC [cis-D-e-C16-Cer, cis-D-erythro-C16-ceramide] | do not interact with the enzyme

Same assay, conditions: inhibitor at 0.625 mole % (50 μM)

Row | Compound | inhibition (maximal inhibition) of mt-CDase activity
29 | CCCCCCCCCCCCCCCC(=O)C(N)CO (stereo not shown) [3-keto-dh-Sph, 3-keto-dihydrosphingosine] | 75%

Same assay, conditions: inhibitor at 0.625 mole % (50 μM); read-out: inhibition (maximal inhibition) of mt-CDase activity

Row | Compound | inhibition at 50 µM
30 | CCCCCCCCCCCCC/C=C/C(=O)[C@H](CO)NC(=O)CCCCCCCCCCCCCCC [3-keto-C16-Cer, 3-keto-C16-ceramide] | 53%
31 | CCCCCCCCCCCCCC#CC(=O)[C@@H](N)CO [3-keto-deh-Sph, 3-keto-dehydrosphingosine] | 15%

Same assay, conditions: substrate D-erythro-ceramide 50 μM

Row | Compound | IC50
32 | CCCCCCCCCCCCC/C=C/[C@@H](O)[C@@H](CO)NC(=O)CCCCCCCCCCCCCCCCC [D-t-C18-Cer, D-threo-C18-ceramide] | 16.6 µM
33 | CCCCCCCCCCCCC/C=C/[C@H](O)[C@@H](CO)NC(=O)CCCCCCCCCCCCCCCCC [L-e-C18-Cer, L-erythro-C18-ceramide] | 20 µM
34 | CCCCCCCCCCCCC/C=C/[C@H](O)[C@H](CO)NC(=O)CCCCCCCCCCCCCCCCC [L-t-C18-Cer, L-threo-C18-ceramide] | 8.8 µM

Same assay, conditions: substrate D-erythro-ceramide 0.625 mole %

Row | Compound | IC50 (50% inhibition of mt-CDase activity)
35 | CCCCCCCCCCCCC/C=C/C(=O)[C@H](CO)NC(=O)CCCCCCCCCCCCCCC [3-keto-C16-Cer, 3-keto-C16-ceramide] | 0.60 mole %
36 | CCCCCCCCCCCCCCCC(=O)C(N)CO (stereo not shown) [3-keto-dh-Sph, 3-keto-dihydrosphingosine] | 0.34 mole %
37 | CCCCCCCCCCCCC/C=C/[C@@H](O)[C@@H](CO)NC(=O)CCCCCCCCCCCCCCCCC [D-t-C18-Cer, D-threo-C18-ceramide] | 0.21 mole %
38 | CCCCCCCCCCCCC/C=C/[C@H](O)[C@@H](CO)NC(=O)CCCCCCCCCCCCCCCCC [L-e-C18-Cer, L-erythro-C18-ceramide] | 0.26 mole %
39 | CCCCCCCCCCCCC/C=C/[C@H](O)[C@H](CO)NC(=O)CCCCCCCCCCCCCCCCC [L-t-C18-Cer, L-threo-C18-ceramide] | 0.11 mole %
40 | CCCCCCCCCCCCC/C=C/[C@@H](O)[C@H](CO)NC [N-Me-Sph, N-methyl-D-erythro-sphingosine] | 0.13 mole %

Same assay, conditions: tested at 0-5 mole % (0-400 μM); [3H]-C16-ceramide 0.625 mole %

Row | Compound | increase in ceramide hydrolysis
41 | CCCCCCCCCCCCC/C=C/[C@@H](O)[C@H](COP(=O)(O)O)NC(=O)CCCCCCCCCCCCCCC [Cer-1-P, D-erythro-C16-ceramide-1-phosphate] | 220%

Same assay, conditions: varying D-erythro-ceramide concentration

Row | Compound | type of inhibition (double reciprocal analysis: Km increased, Vmax unchanged)
42 | CCCCCCCCCCCCC/C=C/C(=O)[C@H](CO)NC(=O)CCCCCCCCCCCCCCC [3-keto-C16-Cer, 3-keto-C16-ceramide] | competitive substrate
43 | CCCCCCCCCCCCC/C=C/[C@H](O)[C@@H](CO)NC(=O)CCCCCCCCCCCCCCCCC [L-e-C18-Cer, L-erythro-C18-ceramide] | competitive
